Reference: paper PMC6017805 (2018)

Columns and labels:
Assay in all cases: UV-Vis titration (D/Δεapp vs D plot)
Conditions in all cases: phosphate buffer 50 mM pH 7.4 (Figure 2; methods say 100 mM), 25 °C, 4a 50 μM
[1] = test system: GC Box [Poly(dGGGCGG)-Poly(dCCCGCC)] (DNA, polymer) GGGCGG/CCGCCC
[2] = test system: [Poly(dG)-Poly(dC)] (DNA, polymer) G/C
[3] = test system: AT Box [Poly(dTATAAT)-Poly(dATATTA)] (DNA, polymer) TATAAT/ATTATA
[4] = test system: [Poly(dA)-Poly(dT)] (DNA, polymer) A/T

SMILES: N[C@@H](CCCCN1C(=O)c2cccc3cccc(c23)C1=O)C(=O)NCCNC(=O)[C@@H](N)CCCCN1C(=O)c2cccc3cccc(c23)C1=O
- Kb [1]: 1910 M⁻¹
- Kb [2]: 1150 M⁻¹
- Kb [3]: 9710 M⁻¹
- Kb [4]: 9080 M⁻¹
